Row | SMILES | melting point [°C]
1 | Oc1ccc(N2CCSCC2)cc1 | 156 to 158
2 | COC1=C(OC)C(=O)C(CCCCCCCCCCCCCCCC(=O)O)=C(C)C1=O | 70 to 71
3 | CCOc1cc2cc(C3=NNC(=O)CC3C)sc2cc1OCC (stereo not drawn) | 170 to 171
4 | Nc1c(Br)cc(C2=NNC(=O)CC2)cc1Br | 212 to 214
5 | O=C(O)Cc1csc(NC(=O)C(CC2CCCC2)c2ccc(Cl)c(Cl)c2)n1 (stereo not drawn) | 100 to 102
6 | Cc1ccc(C(=O)c2cc(CN(C)C)c(O)c(C(C)(C)C)c2)s1 | 119 to 120
7 | COC(=S)c1cnccc1Cc1ccccc1 | 98 to 99
8 | Cc1[nH]c(-c2ccccc2)nc1CO | 197 to 199
9 | O=C(NC1(C2CC2)CC1)c1c(NC(=O)c2cc(C(F)(F)F)nn2-c2ncccc2Cl)c(Cl)cc2cn[nH]c12 | > 250
10 | O=C(O)/C=C/c1cc([N+](=O)[O-])ccc1O | 265 to 267
11 | Cc1nc(C=Cc2nc3ccccc3c(=O)n2-c2ccccc2Cl)cs1 | 219 to 221
12 | COc1cccc(C2(O)CCC(=O)CC2)c1 | 105 to 108
13 | COc1cc(OC)c(OC)c(OC)c1OC | 59 to 61
14 | Cc1cc(C)n2ncc(Br)c2n1 | 115 to 116
15 | CCc1nc(C(=O)c2cc(F)c(Cl)cc2Cl)c(C=O)n1C(CC)CC | 70 to 71
16 | O=C(NCCNCC(O)COc1ccccc1)c1cc(O)ccc1O (stereo not drawn) | 178 to 180
17 | CCOc1ccc(C(=O)OC)cc1C(=N)N | 133 to 135
18 | Clc1ncnc(Cl)c1I | 135 to 136
19 | CCNC1=NS(=O)N=C1NCCSCc1ccc(CN(C)C)o1 (stereo not drawn) | 68 to 74
20 | CCOC(=O)C(CCc1ccccc1)NC1CSC(c2ccsc2)CN(CC(=O)O)C1=O (stereo not drawn) | 165
21 | CCCCCc1c(/C=C/C(=O)O)sc2cc(OC)ccc12 | 209 to 210

Row | SMILES | melting point [°C]
22 | CCOCc1nc2c(N)nc3cccnc3c2n1CCCCCC(N)=O | 215 to 217
23 | Cc1nnc(SCC2=C(C(=O)O)N3C(=O)C(NC(=O)CC4=CSCCS4)C3SC2)s1 (stereo not drawn) | 170
24 | COC(=O)c1cc([N+](=O)[O-])c(N)c(F)c1F | 184
25 | CNC1(c2ccccc2)CC=C(c2[nH]c3ccccc3c2CCc2ccncc2)CC1 (stereo not drawn) | 168 to 172
26 | CCC(=O)NCCC1CCc2ccn3nccc3c21 (stereo not drawn) | 72 to 73
27 | CCCCCN1C(=O)C2(COc3cc4c(cc32)OCO4)c2c(Cl)ccc(Cl)c21 (stereo not drawn) | 106 to 108
28 | COC(=O)c1cc2c(C)ccc(Cl)c2[nH]1 | 133 to 134
29 | O=C(O)Cc1cc(=O)c(O)cn1Cc1ccccc1 | 231 to 235
30 | O=Cc1ccc2nccnc2c1 | 134
31 | Cc1ncn(-c2cc(F)ccc2C#N)n1 | 117 to 118
32 | CCC(C)n1cc(Cl)nc(N2CCc3cc(OC)cc(Br)c32)c1=O (stereo not drawn) | 155 to 157
33 | O=[N+]([O-])c1cnc2cccnc2c1NCc1ccccc1 | 127 to 129
34 | CCN(CC)C(=O)COC(=O)/C=C/C(=O)OC | 53 to 56
35 | COC(=O)[C@@H]1C[C@H](OC(=N)C(Cl)(Cl)Cl)C(=O)[C@H]2[C@@]1(C)CC[C@H]1C(=O)O[C@H](c3ccoc3)C[C@]21C | 120 to 123
36 | O=C(NCCSCc1cccc(Cl)c1)c1c([N+](=O)[O-])cccc1[N+](=O)[O-] | 139 to 140
37 | CCCc1nc(NC)n2ncc(C(=O)c3ccccc3Cl)c2n1 | 116 to 118
38 | CCOC(=O)C(NC(=O)CNC(=O)CC)C(=O)OCC | 120 to 122
39 | CCCCOc1nsnc1S(C)(=O)=O | 39 to 40
40 | Cc1cc(C(O)(c2cc(C)sc2C)c2cc(C)sc2C)c(C)s1 | 110 to 111
41 | CC(C)(CNC(=O)COCC(=O)OCOC(=O)Cc1ccccc1Nc1c(Cl)cccc1Cl)SN=O | 66

Other lines, results leading:

Row | melting point [°C] | SMILES
42 | 117 to 120 | O=C1NC(=O)C2(c3cc(Oc4ccc(O)cc4)c(Cl)cc3F)CCCCC12 (stereo not drawn)
43 | 164 to 165 | COCc1nc(C(C)(C)O)c(C(=O)O)n1Cc1ccc(-c2ccccc2C(=O)O)cc1
44 | 172 to 174 | CCSCc1c(S(C)(=O)=O)ccc(C(=O)O)c1Cl
45 | 191 to 193 | O=C(O)C1Cc2c(cc(Cl)c3c(-c4ccccc4F)noc23)O1 (stereo not drawn)
46 | 99 | CN(C)CCN(c1ccccc1NCCOc1ccc(Cl)cc1)S(=O)(=O)c1ccc(Cl)cc1
47 | 168 to 170 | COc1ccc(C(C)C)cc1-c1cc(C(=O)NC2CCN(C(=O)OC(C)(C)C)CC2)c(OCc2ccccc2)cc1OCc1ccccc1
48 | 40 to 42 | C[C@H](C(=O)NC[C@H](COC(=O)C(C)(C)C)Cc1ccccc1)c1ccc(NS(C)(=O)=O)c(F)c1
49 | 198 to 200 | O=C1N(Cc2ccccn2)c2ccccc2C12COc1cc3c(cc12)OCC3 (stereo not drawn)
50 | 97 to 120 | Nc1cccc(-c2ccc(OC3CN(Cc4ccccn4)C3)c3ccccc23)n1
51 | 92 to 95 | CCCCNC(=O)Cc1ccc2c(c1)c(Cc1ccc(C(=O)O)cc1OC)cn2C
52 | 232 to 234 | Cc1ccc(N(c2ccc(C)cc2)c2ccc(-c3ccc(-c4ccc(N(c5ccc(C)cc5)c5ccc(C)cc5)cc4)cc3)cc2)cc1
53 | 73 to 75 | Cc1cn(C(C)C(=O)N(C)C)nc1-c1cccc(Cl)c1 (stereo not drawn)
54 | 178 | O=C(O)COc1ccc([C@H]2c3ccc(O)cc3OC[C@H]2c2ccccc2)cc1 (racemic)
55 | 264 | CCCCNc1cc(C(=O)O)cc(S(N)(=O)=O)c1Oc1ccc(N)cc1
56 | 116 to 118 | CC(C)(CO)C(O)(Cn1cncn1)c1ccc(F)cc1F (single isomer, unassigned; (+))
57 | 138 | Cc1cc(CNS(=O)(=O)c2ccc(Br)s2)cc(C)n1
58 | 256 to 260 | CN(C)C(=O)c1c(C(=O)NN=Cc2ccc3ccccc3c2)[nH]c2ccccc12
59 | 285 to 288 | COc1cc2ncc(C#N)c(Nc3cccc(C#N)c3)c2cc1OC
60 | 60 | Cc1nc2cc(-c3ccco3)ccc2o1

Row | melting point [°C] | SMILES
61 | 170 to 171 | COC(=O)Cc1nc2cc(OC)c(OC)cc2c(-c2ccc(OC)c(OC)c2)c1C(=O)OC
62 | 209 to 210 | CC(=O)Nc1ccc(S(=O)(=O)Nc2ccccc2)cc1
63 | 210 to 212 | COc1ccc(Cc2cnc(N)nc2N)cc1OCc1ccccc1
64 | 81 to 82.5 | N#CC(c1ccc([N+](=O)[O-])cc1)c1ccc(Cl)cc1Cl (stereo not drawn)
65 | 126 to 128 | CC(C)(C)OC(=O)N1CCC[C@@H](OC(=O)c2ccc(OC(C)(C)C)cc2)[C@H](NC(=O)c2ccc(OC(C)(C)C)cc2)C1
66 | 157 to 159 | CCOC(=O)C(CC)c1ccc(N2Cc3ccccc3C2=N)cc1 (stereo not drawn)
67 | 188 to 190 | CCN1c2ncc(CNc3cccc(N)c3)cc2C(=O)N(C)c2ccc(Cl)nc21
68 | 102 to 104 | CCc1cc(-c2ccc(F)cc2)c(O)cc1OCCCCCC(c1ccc(OCC(=O)O)cc1)c1nnn[nH]1 (stereo not drawn)
69 | 140 to 141 | CCN(CC)CCOc1ccc(N(C(=O)Nc2ccccc2)C2=NN(c3ccccc3)CC2)cc1
70 | 225 to 228 | COc1cc2c(Nc3ccc(Sc4ccccn4)c(Cl)c3)c(C#N)cnc2cc1F
71 | 80 to 115 | CCn1c(C)c(C2(N(c3ccccc3)c3ccccc3C(=O)OC)OC(=O)c3ccccc32)c2ccccc21 (stereo not drawn)
72 | 142 to 144 | Cc1noc(NS(=O)(=O)c2ccc(F)cc2)c1Br
73 | 178 | CN(Cc1ccc(CCn2cnc3cc(-c4ccc(Cl)cc4)sc3c2=O)cc1)C(=O)C1CC1
74 | 219 to 220 | CCOc1ccc(-c2nc(C)c(C(=O)O)s2)cc1Cl
75 | 92.4 to 93.5 | CCOC(=O)CCc1coc2c(O[Si](C)(C)C(C)(C)C)c3ccccc3c(C)c12
76 | 286 to 290 | O=C(O)c1[nH]c2cc(Cl)cc(Cl)c2c1NCS(=O)(=O)c1ccccc1
77 | 129 to 131 | COc1ccc(-c2nc(-c3cccnc3)c(C)n2C)c(OC)c1
78 | 126 to 128 | CCOC(=O)C(O)C1OC(c2ccccc2Cl)c2cc(Cl)ccc2N(C(C)C)C1=O (stereo not drawn)
79 | 166 to 167 | CN(C)C(=O)CCc1cc(-c2ccncc2)sc1-c1ccncc1

Row | melting point [°C] | SMILES
80 | 208 to 210 | c1cncc(-c2ccc3nnn(Cc4ccc5ncccc5c4)c3n2)c1
81 | 168 to 169 | CC(C)=CCN1N=C(c2ccc(F)cc2)c2cc(Cl)ccc2CS1(=O)=O
82 | 147 to 150 | Cc1ccc(-c2ccc(S(C)(=O)=O)c(F)c2)n1-c1ccc(-c2ccoc2)cc1
83 | 147 to 148 | CC(C)(C)c1cc(-c2csc(CNc3ccccc3)n2)cc(C(C)(C)C)c1O
84 | 175 to 177 | COc1cc(N(C(=O)[C@@H](N)Cc2cnc[nH]2)S(=O)(=O)c2ccc3c(ccn3C)c2)cc(OC)c1OC
85 | 203 to 205 | CN1CC(c2cc(CCc3ccccc3)cnn2)=C(O)C1=O
86 | 146 | Cc1cc(-n2cncn2)c2cccc(OCc3c(Cl)ccc(S(=O)(=O)N4CCC[C@H]4C(=O)O)c3Cl)c2n1
87 | 150 to 152 | CC(C)(C)OC(=O)n1cc(C(=O)c2ccn3c2CSC3c2cccnc2)c2ccccc21 (stereo not drawn)
88 | 136 | Nc1ccc(N=Nc2ccc(N)c(C(F)(F)F)c2)c(C(F)(F)F)c1
89 | > 250 | O=c1[nH]c2cccc(OCCNCc3ccc(Cl)cc3)c2[nH]c1=O
90 | 283 to 285 | Cn1nc2c(N)nc3ccccc3c2c1CC1(F)CCN(S(C)(=O)=O)CC1
91 | 111 | CC(C)(C(=O)c1ccc(Cl)cc1)n1cncn1
92 | 144 to 145 | C=CC(c1ccccc1)c1c(C)c(NC=O)c(C)c(C)c1O (stereo not drawn)
93 | 176 to 179 | COc1cc2c(cc1OC)N(c1ccc([N+](=O)[O-])cc1)CC2
94 | 159 | CC1CCCN(C[C@@H]2COc3ccc(S(C)(=O)=O)cc3O2)C1 (stereo partly drawn)
95 | 218 | O=C(c1ccc(F)cc1)C1CCN(C2Sc3ccccc3NC2=O)CC1 (stereo not drawn)
96 | 112 to 114 | Fc1cccc(Cl)c1-c1nn(-c2ccccc2Cl)c(=S)o1
97 | 90 to 91 | C[Si](C)(CCSCCNC(=O)n1cc(F)c(=O)[nH]c1=O)c1ccccc1
98 | 228 to 233 | Cn1nnc(COc2nn3c(-c4ccccc4)nnc3cc2-c2ccccc2)n1

— a melting point compilation (Tetko et al.; mined from patent text by program, amines drawn as free bases though some values may be those of a salt)
